Data: patent publication US9345245B2, “Synthetic compounds for vegetative ABA responses” (THE REGENTS OF THE UNIVERSITY OF CALIFORNIA, priority 2012, dated 2016)
pIC50: −log10 of the molar value.

Tests used:
[1] = molecular target: T1, PYL5 (Arabidopsis thaliana, UniProt Q9FLB1); assay: Receptor-mediated PP2C inhibition assay, receptor PYL5; format: biochemical
T1 construct: 6xHis (N); made in house; BL21[DE3]pLysS for the GST-PP2Cs
T1 sequence (Q9FLB1 1-203): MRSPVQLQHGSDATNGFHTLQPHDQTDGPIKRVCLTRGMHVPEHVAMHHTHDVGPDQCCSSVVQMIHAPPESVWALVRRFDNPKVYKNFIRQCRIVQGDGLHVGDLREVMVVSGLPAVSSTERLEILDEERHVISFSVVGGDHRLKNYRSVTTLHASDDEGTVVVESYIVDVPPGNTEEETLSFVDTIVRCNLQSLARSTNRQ
T1 sequence (Q9CAJ0 23-511 partner): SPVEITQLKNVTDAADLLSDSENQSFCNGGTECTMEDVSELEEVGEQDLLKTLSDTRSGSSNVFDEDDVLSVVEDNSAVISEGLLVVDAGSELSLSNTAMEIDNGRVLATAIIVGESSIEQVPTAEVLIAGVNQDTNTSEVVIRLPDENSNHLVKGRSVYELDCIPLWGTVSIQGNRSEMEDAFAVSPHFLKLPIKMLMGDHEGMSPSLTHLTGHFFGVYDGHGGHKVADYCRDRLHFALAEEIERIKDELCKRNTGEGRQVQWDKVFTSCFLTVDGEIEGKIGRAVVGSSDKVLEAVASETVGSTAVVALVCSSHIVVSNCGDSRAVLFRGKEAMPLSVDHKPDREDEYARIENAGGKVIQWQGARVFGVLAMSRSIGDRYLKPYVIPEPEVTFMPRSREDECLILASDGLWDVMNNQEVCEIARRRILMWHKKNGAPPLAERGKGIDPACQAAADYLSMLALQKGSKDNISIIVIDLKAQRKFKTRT
Protocol: HAB1 and PYL proteins were expressed and purified as described previously (Park S Y, et al. (2009) Abscisic Acid Inhibits Type 2C Protein Phosphatases via the PYR/PYL Family of START Proteins. Science 324(5930):1068-1071), with minor modifications. To obtain GST-HAB1, -ABI1 and -ABI2 fusion proteins, the HAB1 cDNA was cloned into pGex-2T whereas ABI1 and ABI2 cDNAs were cloned into the vector pGex-4T-1. Expression was conducted in BL21[DE3]pLysS host cells. Transformed cells were pre-cultured overnight, transferred to LB medium and cultured at 30° C. to culture A600 of ˜0.5. The culture was then cooled on ice and MnCl2 added to 4 mM and IPTG added to 0.3 mM. After 16 hours incubation at 15° C., cells were harvested and recombinant proteins were purified on glutathione agarose as described previously (Park S Y, et al. (2009). To obtain 6×His-PYL receptor fusion proteins, receptor cDNAs for all 13 ABA receptors were cloned into the vector pET28 and expressed and purified as described previously (Mosquna A, et al. (2011) Potent and selective activation of abscisic acid receptors in vivo by mutational stabilization of their agonist-bound conformation. PNAS 108(51):20838-20843); this yielded soluble and functional protein (assessed using receptor-mediated PP2C inhibition assays) for all receptors except PYL7, PYL11 and PYL12. […]

[2] = system: ABA-responsive genes; assay: Quantitative RT-PCR of ABA-responsive genes in Arabidopsis; format: in vivo
Protocol: FIG. 9. LC66C6 induces numerous ABA-responsive genes. […] Ten-day old seedlings were treated with carrier solvent (DMSO) or either 25 μM ABA, pyrabactin or LC66C6 for 8 hours. Total RNA was then prepared labeled and hybridized to ATH1 microarrays. Data plotted are log 2 transformed average expression values for ˜13K probes that were detectable across all experiments. Data shown are averages determined from triplicate biological replicates. (C) and (D) show the expression of a reporter gene in different plant tissues after treatment with vehicle (DMSO), pyrabactin, LC66C6, or (+)-ABA.
Total RNA was isolated using Plant RNA purification reagent (Invitrogen, USA) according to the manufacturer's instructions. cDNA was synthesized from 1 μg of total RNA using the QantiTec reverse transcription kit (Qiagen, USA). Real-time PCR using Maxima® SYBR Green/Fluorescein qPCR Master Mix (Fermentas) was performed with the iQ5 real-time PCR detection system (Bio-Rad, Hercules, Calif.). The relative amounts of target mRNAs were determined using the relative standard curve method and were normalized by relative amount of internal control mRNA. Biological triplicate experiments were performed.

[3] = system: Chlamydomonas; assay: Colony growth of Chlamydomonas with and without salinity and osmotic stress; format: in vivo; conditions: in vivo
Protocol: FIG. 17. The effect of ABA and its agonists in Physcomitrella patens and Chlamydomonas. Protonemal growth images (A) and quantitative analysis (B) of the effects of ABA and agonists on Phsycomitrella patens. Protonema were grown on 200 μM of specific test chemical for 10 days. […] Pyrabactin bleached protonema. (C) The expression of ABA-responsive genes of Physcomitrella patens. Protonema were treated with 200 μM chemical solutions for 3 h. (D) Colony growth of Chlamydomonas on the chemical with salinity stress and osmotic stress. There was no effect of ABA and LC66C6 on the Chlamydomonas growth with and without stresses.

[4] = system: Arabidopsis seeds; conditions: pyr1 single mutant; Park et al. 2009; cited from earlier work
[5] = system: ABA-responsive genes; conditions: higher concentrations; Park et al., 2009; cited from earlier work

- PP2C inhibition at saturation ([1]; maximal (saturating) inhibition): ~40%
- pIC50 ([1]; read-out: IC50 (activation of PYL5)): 6.05
SMILES: O=S(=O)(NCc1ccccn1)c1ccc(Br)c2ccccc12 [pyrabactin]
- induction of MAPKKK18, RD29A, and RD29B mRNAs ([2]; Col and Ler ecotypes and pyr1, pyl1, ply2, pyl3 and pyl4 single mutants): did not significantly induce expression of any of the genes assayed
- expression of ABF3, GBF3, NCED3, and RD29A ([2]; Col wild-type plants): did not induce significant expression of any genes analyzed
- expression of RD29B and MAPKKK18 mRNA ([2]; wild-type plants): did not induce gene expression
- bleaching of Chlamydomonas (toxicity) [3]: bleached the Chlamydomonas
- germination of pyr1 mutant [4]: pyr1 mutant germinates
- ABA-related gene expression in seedlings [5]: induce modest ABA-related gene expression
